PubChem BioAssay (NCI)
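1) Cells in 96-well plates. 2) Compound, 48 h, 5 concentrations. 3) Linear interpolation between surrounding doses. 4) Unreached endpoint = highest concentration. GI50 is the concentration that inhibits growth by half. TGI: total growth inhibition.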

Tests used:
Assay in all cases: inhibition of tumour cell growth, NCI panel, 48 h
DMS 273 small cell lung = tested on: DMS 273 small cell lung
HOP-18 NSCLC = tested on: HOP-18 NSCLC
LXFL 529 NSCLC = tested on: LXFL 529 NSCLC
KM20L2 colon = tested on: KM20L2 colon
M19-MEL melanoma = tested on: M19-MEL melanoma
DLD-1 colon = tested on: DLD-1 colon
DMS 114 small cell lung = tested on: DMS 114 small cell lung
DU-145 prostate = tested on: DU-145 prostate
MCF7 breast = tested on: MCF7 breast
MDA-MB-231 breast = tested on: MDA-MB-231 breast

Structure (SMILES)	TGI (DMS 273 small cell lung)	TGI (HOP-18 NSCLC)	TGI (LXFL 529 NSCLC)	TGI (KM20L2 colon)	TGI (M19-MEL melanoma)	TGI (DLD-1 colon)	TGI (DMS 114 small cell lung)	TGI (DU-145 prostate)	TGI (MCF7 breast)	TGI (MDA-MB-231 breast)	GI50 (DMS 273 small cell lung)
COc1cc([C@@H]2c3cc4c(cc3[C@@H](NC(=O)c3ccccc3)C3COC(=O)[C@@H]32)OCO4)cc(OC)c1O (stereo not given in full)	13.7 µM	> 100 µM	> 100 µM	12.8 µM	24.7 µM	> 100 µM	21.4 µM	–	–	–	–
CC(=O)Oc1ccc(O)c(O)c1C/C=C(\C)CC/C=C(\C)CC/C=C(\C)CCC=C(C)C	0.817 µM	0.879 µM	1.05 µM	3.74 µM	1.81 µM	1.41 µM	1.29 µM	–	–	–	–
CC(=O)NC1=C(C)C(=O)c2c(nc3n2CCC3O)C1=N (stereo not given)	33.2 µM	31.8 µM	–	36.9 µM	4.94 µM	25.1 µM	13.4 µM	–	–	–	–
COc1cc(/C=C/C(=O)c2sc(Nc3ccccc3)nc2C)ccc1O	> 100 µM	> 100 µM	–	> 100 µM	> 100 µM	> 100 µM	> 100 µM	–	–	–	–
CCCCCCCCCCCCCC(=O)CBr	–	29.3 µM	9.13 µM	26 µM	23.5 µM	34.3 µM	9.3 µM	33.7 µM	30.2 µM	34.2 µM	–
CCCCCCCCCCCCCCCC(=O)OCC1OC(n2c(O)c(N=NC(N)=S)c3ccc([N+](=O)[O-])cc32)C(OC(C)=O)C1OC(C)=O (stereo not given)	> 100 µM	> 100 µM	> 100 µM	> 100 µM	> 100 µM	> 100 µM	> 100 µM	–	–	–	–
CC/C=C\C/C=C\C/C=C\CCCCCCCC(=O)OCC	–	> 100 µM	> 100 µM	> 100 µM	> 100 µM	> 100 µM	> 100 µM	–	–	–	–
O=C(CN1CCN(c2ccccc2)CC1)N1CCc2c([nH]c3ccccc23)C1c1cccnc1 (stereo not given)	> 100 µM	> 100 µM	> 100 µM	> 100 µM	> 100 µM	> 100 µM	> 65 µM	–	–	–	–
COc1cc(CNc2ccc(C(C)C)cc2)cc(OC)c1OC	26.3 µM	74.1 µM	48.7 µM	38.8 µM	39 µM	48.8 µM	48.7 µM	–	–	–	13 µM
CSc1nc2c(nc(N)n2C2OCC(O)C(O)C2O)c(=O)n1C (stereo not given)	–	> 100 µM	> 100 µM	> 100 µM	> 100 µM	> 100 µM	> 100 µM	–	–	–	–
Cc1ccc(NC(=O)/C(=N\Nc2ccc([N+](=O)[O-])cc2[N+](=O)[O-])C2C(=O)NC(=O)NC2=O)cc1	–	> 100 µM	> 100 µM	> 100 µM	> 100 µM	> 100 µM	> 100 µM	–	–	–	–
